Test results published in ChEMBL document CHEMBL1148788 (J Med Chem, 2007).

Assays:
[1] = biological target: Neuronal acetylcholine receptor; alpha4/beta2 (Rattus norvegicus, UniProt P09483+P12390); assay: Displacement of [3H]epibatidine from rat recombinant alpha-4-beta-2 nAChR in HEK293 cell line; format: cell-based; conditions: for pKi: hek293; for Ki: read-out: Ki
[2] = biological target: T1, Neuronal acetylcholine receptor subunit alpha-7 (Homo sapiens, UniProt P36544); assay: Displacement of [3H]methyllycaconitine from human alpha-7 in tsA201 cells coexpressed with 5HT3A receptor; format: cell-based
T1 sequence (P36544 whole entry): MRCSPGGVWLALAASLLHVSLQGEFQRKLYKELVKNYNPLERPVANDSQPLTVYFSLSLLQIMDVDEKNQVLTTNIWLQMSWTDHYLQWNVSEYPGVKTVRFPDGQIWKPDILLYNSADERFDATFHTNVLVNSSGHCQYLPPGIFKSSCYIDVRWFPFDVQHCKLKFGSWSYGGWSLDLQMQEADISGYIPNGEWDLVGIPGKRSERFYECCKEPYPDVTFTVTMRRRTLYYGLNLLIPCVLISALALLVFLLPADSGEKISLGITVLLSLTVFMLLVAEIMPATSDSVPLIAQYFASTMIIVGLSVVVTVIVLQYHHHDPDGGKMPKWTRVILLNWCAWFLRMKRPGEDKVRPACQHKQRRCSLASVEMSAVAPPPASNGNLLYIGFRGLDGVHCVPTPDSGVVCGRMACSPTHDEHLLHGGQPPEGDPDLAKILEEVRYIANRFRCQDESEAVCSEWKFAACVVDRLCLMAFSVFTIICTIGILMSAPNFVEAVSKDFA

[3] = biological target: T2, Neuronal acetylcholine receptor; alpha3/beta4 (Rattus norvegicus, UniProt P04757+P12392); assay: Displacement of [3H]epibatidine from recombinant rat alpha-3-beta-4 nAChr in HEK293 cell line; format: cell-based; conditions: for pKi: hek293
T2 sequence (P04757 whole entry): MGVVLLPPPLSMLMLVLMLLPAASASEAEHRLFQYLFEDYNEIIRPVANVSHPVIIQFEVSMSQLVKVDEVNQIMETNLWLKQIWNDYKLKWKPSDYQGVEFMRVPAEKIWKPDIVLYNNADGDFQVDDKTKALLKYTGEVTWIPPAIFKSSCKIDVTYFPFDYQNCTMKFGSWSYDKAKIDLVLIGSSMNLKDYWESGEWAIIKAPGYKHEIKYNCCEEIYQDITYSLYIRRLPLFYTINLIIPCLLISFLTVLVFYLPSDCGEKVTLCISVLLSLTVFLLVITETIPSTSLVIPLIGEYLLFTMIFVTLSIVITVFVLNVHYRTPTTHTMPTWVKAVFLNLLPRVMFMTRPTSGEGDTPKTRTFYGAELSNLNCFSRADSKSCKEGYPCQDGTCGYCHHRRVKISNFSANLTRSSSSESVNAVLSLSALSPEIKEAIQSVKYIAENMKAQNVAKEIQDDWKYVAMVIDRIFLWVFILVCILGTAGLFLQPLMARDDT
T2 sequence (P12392 whole entry): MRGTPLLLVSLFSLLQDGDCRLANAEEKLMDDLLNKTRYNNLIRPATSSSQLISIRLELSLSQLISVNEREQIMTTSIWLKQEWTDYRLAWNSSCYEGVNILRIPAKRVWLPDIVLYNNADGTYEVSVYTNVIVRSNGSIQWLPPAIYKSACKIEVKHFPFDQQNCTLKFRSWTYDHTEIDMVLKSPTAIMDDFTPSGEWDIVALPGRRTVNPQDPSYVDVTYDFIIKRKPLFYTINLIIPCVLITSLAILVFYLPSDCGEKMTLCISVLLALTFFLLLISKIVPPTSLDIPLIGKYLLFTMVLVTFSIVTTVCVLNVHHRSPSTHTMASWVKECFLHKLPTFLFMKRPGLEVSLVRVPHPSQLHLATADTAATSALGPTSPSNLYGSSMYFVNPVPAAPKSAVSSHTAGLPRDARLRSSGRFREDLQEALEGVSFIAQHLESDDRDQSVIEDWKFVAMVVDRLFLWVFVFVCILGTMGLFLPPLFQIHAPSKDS

[4] = biological target: Neuronal acetylcholine receptor; alpha4/beta4 (Rattus norvegicus, UniProt P09483+P12392); assay: Displacement of [3H]epibatidine from recombinant rat alpha-4-beta-4 nAChr in HEK293 cell line; format: cell-based; conditions: for pKi: hek293
Chain of Neuronal acetylcholine receptor; alpha4/beta4 (P09483 whole entry): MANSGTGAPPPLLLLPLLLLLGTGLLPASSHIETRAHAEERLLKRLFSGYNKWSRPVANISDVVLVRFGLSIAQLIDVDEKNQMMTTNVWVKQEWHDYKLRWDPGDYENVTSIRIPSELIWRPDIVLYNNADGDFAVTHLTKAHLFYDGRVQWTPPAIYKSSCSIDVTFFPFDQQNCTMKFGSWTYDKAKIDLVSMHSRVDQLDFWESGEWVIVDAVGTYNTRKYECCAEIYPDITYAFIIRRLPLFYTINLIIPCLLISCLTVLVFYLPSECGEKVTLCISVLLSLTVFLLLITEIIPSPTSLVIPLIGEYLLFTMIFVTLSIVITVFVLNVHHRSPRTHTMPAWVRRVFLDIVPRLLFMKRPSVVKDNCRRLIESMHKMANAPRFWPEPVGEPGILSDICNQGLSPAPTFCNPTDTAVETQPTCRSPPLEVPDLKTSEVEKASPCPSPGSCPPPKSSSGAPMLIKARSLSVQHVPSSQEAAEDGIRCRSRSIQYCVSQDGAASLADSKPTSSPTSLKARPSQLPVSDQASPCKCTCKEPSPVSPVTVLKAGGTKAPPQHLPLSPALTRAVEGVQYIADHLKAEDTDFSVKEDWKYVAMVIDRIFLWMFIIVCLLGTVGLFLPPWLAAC
Chain of Neuronal acetylcholine receptor; alpha4/beta4 (P12392 whole entry): as the sequence (P12392 whole entry) above

[5] = biological target: T1, Neuronal acetylcholine receptor subunit alpha-7; assay: Displacement of [3H]methyllycaconitine from alpha7 nAChR in tsA201 cells co-expressed with Ric3; format: cell-based
[6] = biological target: T3, 5-hydroxytryptamine receptor 3A (Homo sapiens, UniProt P46098); assay: Displacement of [3H]GR65630 from human 5HT3A receptor in HEK293 cells; format: cell-based; conditions: for pKi: hek293
T3 sequence (P46098 whole entry): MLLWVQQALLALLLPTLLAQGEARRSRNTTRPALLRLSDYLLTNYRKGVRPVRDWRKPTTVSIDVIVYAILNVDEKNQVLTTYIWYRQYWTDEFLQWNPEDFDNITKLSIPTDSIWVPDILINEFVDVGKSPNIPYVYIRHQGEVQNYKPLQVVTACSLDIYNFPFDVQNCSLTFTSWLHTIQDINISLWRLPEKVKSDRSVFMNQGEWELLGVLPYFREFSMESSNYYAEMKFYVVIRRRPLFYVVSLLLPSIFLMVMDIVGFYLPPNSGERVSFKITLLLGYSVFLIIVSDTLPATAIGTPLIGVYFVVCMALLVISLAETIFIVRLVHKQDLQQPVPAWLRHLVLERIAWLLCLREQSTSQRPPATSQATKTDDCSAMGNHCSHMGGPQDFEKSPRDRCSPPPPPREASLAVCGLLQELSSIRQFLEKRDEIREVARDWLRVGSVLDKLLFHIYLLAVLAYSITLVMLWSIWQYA

cells = format: functional, cell-based; conditions: Homo sapiens, HEK293
[7] = biological target: T2, Neuronal acetylcholine receptor; alpha3/beta4; assay: Antagonist activity at rat alpha3beta4 nAChR expressed in HEK293 cells by FMP assay; format: functional, cell-based, Homo sapiens; conditions: for pIC50: hek293
[8] = biological target: T3, 5-hydroxytryptamine receptor 3A; assay: Antagonist activity at human 5HT3A receptor expressed in HEK293 cells by FMP assay; format: functional, cell-based
[9] = biological target: T1, Neuronal acetylcholine receptor subunit alpha-7; assay: Antagonist activity at human alpha-7 nAChR in tsA201 cells coexpressed with Ric3 by FMP assay; format: functional, cell-based
[10] = biological target: T4, Glycine receptor subunit alpha-1 (Homo sapiens, UniProt P23415); assay: Antagonist activity at human glycine alpha-1 receptor in HEK293 cells by FMP assay; format: functional, cell-based; conditions: for pIC50: hek293
T4 sequence (P23415 whole entry): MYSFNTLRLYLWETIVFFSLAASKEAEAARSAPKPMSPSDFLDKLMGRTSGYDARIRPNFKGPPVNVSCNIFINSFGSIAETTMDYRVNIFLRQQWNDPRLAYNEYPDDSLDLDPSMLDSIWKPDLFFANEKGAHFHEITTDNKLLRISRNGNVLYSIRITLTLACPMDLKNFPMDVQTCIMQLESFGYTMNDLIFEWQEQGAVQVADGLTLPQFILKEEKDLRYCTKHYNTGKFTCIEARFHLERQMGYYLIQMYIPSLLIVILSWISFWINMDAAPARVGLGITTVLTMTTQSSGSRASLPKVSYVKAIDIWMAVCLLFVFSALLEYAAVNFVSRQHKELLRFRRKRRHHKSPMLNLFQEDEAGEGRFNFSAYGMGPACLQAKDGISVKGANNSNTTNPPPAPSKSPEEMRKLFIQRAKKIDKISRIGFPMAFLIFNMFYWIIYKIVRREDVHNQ

Chain of Neuronal acetylcholine receptor; alpha4/beta2 (P09483 whole entry): as the sequence (P09483 whole entry) above
Chain of Neuronal acetylcholine receptor; alpha4/beta2 (P12390 whole entry): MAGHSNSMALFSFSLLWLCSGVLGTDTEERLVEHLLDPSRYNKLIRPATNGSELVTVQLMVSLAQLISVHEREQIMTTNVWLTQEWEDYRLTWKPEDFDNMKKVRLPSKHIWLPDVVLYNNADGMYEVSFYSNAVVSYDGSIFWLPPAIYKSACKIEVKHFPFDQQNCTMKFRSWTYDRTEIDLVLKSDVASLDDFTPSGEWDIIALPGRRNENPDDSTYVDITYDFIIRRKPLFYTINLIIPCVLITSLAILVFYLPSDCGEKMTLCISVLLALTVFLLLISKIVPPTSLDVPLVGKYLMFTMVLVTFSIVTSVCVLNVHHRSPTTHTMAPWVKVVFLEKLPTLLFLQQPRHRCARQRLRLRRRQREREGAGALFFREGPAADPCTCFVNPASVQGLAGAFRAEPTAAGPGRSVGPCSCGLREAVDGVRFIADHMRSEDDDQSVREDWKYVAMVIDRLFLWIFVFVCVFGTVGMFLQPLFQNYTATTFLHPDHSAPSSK

| SMILES | pKi [1] | Ki [1] [µM] | Ki ([2]; read-out: Ki) [µM] | Ki ([2]; read-out: pKi (converted)) [µM] | Ki [3] [µM] | pKi [3] | Ki [4] [µM] | pKi [4] | Ki ([5]; read-out: Ki) [µM] | Ki ([5]; read-out: pKi (converted)) [µM] | Ki [6] [µM] | IC50 (cells; read-out: IC50) [µM] | IC50 (cells; read-out: pIC50 (converted)) [µM] | IC50 ([7]; read-out: IC50) [µM] | IC50 ([8]; read-out: IC50) [µM] | IC50 ([9]; read-out: IC50) [µM] | IC50 ([9]; read-out: pIC50 (converted)) [µM] | IC50 [10] [µM] | pIC50 [10] | pIC50 [7] | further results |
| --- | --- | --- | --- | --- | --- | --- | --- | --- | --- | --- | --- | --- | --- | --- | --- | --- | --- | --- | --- | --- | --- |
| CN(C)Cc1c2n(c3ccccc13)Cc1c(CN(C)C)c3ccccc3n1C2 | < 4 | > 100 | 19 | 20 | > 100 | < 4 | > 100 | < 4 | 5.4 | 5.01 | > 100 |  |  |  |  |  |  |  |  |  | pKi [6]: < 4 |
| OC/C=C1/C[N+]2(C3C=CCCC3)CC[C@@H]3[C@@H]4/C(=C\N5c6ccccc6[C@@]67CC[N+]8(C9C=CCCC9)CC9=CCO[C@H]([C@@H]([C@H]56)[C@H]9C[C@@H]78)N4c4ccccc4)[C@H]1C[C@@H]32.[Br-].[Br-] (some centres not stated) | < 4 | > 100 | 0.36 | 0.316 | 100 |  | > 100 | < 4 | 0.23 | 0.251 | 40 | > 100 | > 100 | 30 | 30 | 2.3 | 2.34 | > 100 | < 4 |  |  |
| C[N+](C)(Cc1ccc([N+](=O)[O-])cc1)Cc1c2n(c3ccccc13)Cc1c(C[N+](C)(C)Cc3ccc([N+](=O)[O-])cc3)c3ccccc3n1C2.[Br-].[Br-] | < 4 | > 100 | 2.1 | 2 | > 100 | < 4 | > 100 | < 4 | 3.9 | 3.98 | > 100 | > 100 | > 100 | > 100 | 30 | 30 | 100 | > 100 | < 4 | < 4 | pKi [6]: < 4 |
| COc1ccc(C[N+]23CC[C@@H]4[C@@H]5/C(=C\N6c7ccccc7[C@@]78CC[N+]9(Cc%10ccc(OC)c(OC)c%10)CC%10=CCO[C@H]([C@@H]([C@H]67)[C@H]%10C[C@@H]89)N5c5ccccc5)[C@@H](C[C@@H]42)/C(=C\CO)C3)cc1OC.[Cl-].[Cl-] (some centres not stated) | < 4 | > 100 | 0.27 | 0.251 | > 100 | < 4 | > 100 | < 4 | 0.2 | 0.2 | 100 | > 100 | > 100 | 100 | 30 | 2.6 | 2.63 | > 100 | < 4 |  | IC50 ([7]; read-out: pIC50 (converted)): 31.6 µM |
| Brc1ccc(C[N+]23CC[C@@H]4[C@@H]5[C@@H]6[C@@H](OCC=C(C2)[C@@H]6C[C@@H]43)N2c3ccccc3[C@@]34CC[N+]6(Cc7ccc(Br)cc7)CC7=CCO[C@H]([C@@H]([C@H]23)[C@H]7C[C@@H]46)N5c2ccccc2)cc1.[Br-].[Br-] (some centres not stated) | < 4 | > 100 | 0.26 | 0.251 | > 100 | < 4 | > 100 | < 4 | 0.64 | 0.631 | 5.7 | > 100 | > 100 | > 100 | 30 | 10 | 10.5 | > 100 | < 4 | < 4 |  |
| C=CC[N+]12CC[C@@H]3[C@@H]4[C@@H]5[C@@H](OCC=C(C1)[C@@H]5C[C@@H]32)N1c2ccccc2[C@@]23CC[N+]5(CC=C)CC6=CCO[C@H]([C@@H]([C@H]12)[C@H]6C[C@@H]35)N4c1ccccc1.[Br-].[Br-] (some centres not stated) | < 4 | > 100 | 0.066 | 0.0631 | > 100 | < 4 | > 100 | < 4 | 0.03 | 0.0316 | 100 | > 100 | > 100 | 100 | 100 | 0.28 | 0.282 | > 100 | < 4 |  |  |
| C1=C2CN3CC[C@@H]4[C@@H]5[C@H]([C@@H](OC1)N1c6ccccc6[C@@]67CCN8CC9=CCO[C@H]([C@@H]([C@H]16)[C@H]9C[C@H]87)N5c1ccccc1)[C@H]2C[C@@H]43 | < 4 | > 100 | 1.1 |  | 30 |  | > 100 | < 4 | 1.1 | 1 | 3.1 | > 100 | > 100 | 11 | 11 | 1.6 | 1.58 | > 100 | < 4 |  | IC50 ([8]; read-out: pIC50 (converted)): 12.6 µM |
| C1=C2C[N+]3(Cc4ccccc4)CC[C@@H]4[C@@H]5[C@H]([C@@H](OC1)N1c6ccccc6[C@@]67CC[N+]8(Cc9ccccc9)CC9=CCO[C@H]([C@@H]([C@H]16)[C@H]9C[C@@H]78)N5c1ccccc1)[C@H]2C[C@@H]43.[Br-].[Br-] (some centres not stated) | < 4 | > 100 | 0.2 | 0.2 | > 100 | < 4 | > 100 | < 4 | 0.25 | 0.251 | 100 | > 100 | > 100 | > 100 | 100 | 4.5 | 4.47 | > 100 | < 4 | < 4 |  |
| O=[N+]([O-])c1ccc(C[N+]23CCC4[C@@H]5/C(=C\N6c7ccccc7[C@@]78CC[N+]9(Cc%10ccc([N+](=O)[O-])cc%10)CC%10=CCO[C@H]([C@@H]([C@H]67)[C@H]%10C[C@@H]89)N5c5ccccc5)[C@@H](C[C@@H]42)/C(=C\CO)C3)cc1.[Br-].[Br-] (some centres not stated) | < 4 | > 100 | 0.11 | 0.126 | > 100 | < 4 | > 100 | < 4 | 0.098 | 0.1 | 100 | > 100 | > 100 | > 100 | 30 | 2.5 | 2.45 | > 100 | < 4 | < 4 |  |
| C1=C2C[N+]3(Cc4ccc5ccccc5c4)CC[C@@H]4[C@@H]5[C@H]([C@@H](OC1)N1c6ccccc6[C@@]67CC[N+]8(Cc9ccc%10ccccc%10c9)CC9=CCO[C@H]([C@@H]([C@H]16)[C@H]9C[C@@H]78)N5c1ccccc1)[C@H]2C[C@@H]43 (some centres not stated) |  |  | 0.36 | 0.316 |  |  |  |  | 0.71 | 0.631 |  |  |  |  |  |  |  |  |  |  |  |
